Measured values: patent publication US20110288093A1 (priority 2010, published 2011)
Entries after “also recorded” stand apart in the source; their conditions may differ.

Experiments:
cholera toxin (CTX) = system: cholera toxin (CTX); design: species or system mice (CD1 strain); settings: mouse, in vivo
[1] = system: swelling-activated chloride conductance (VRAC); experiment: Whole cell patch clamp recordings of VRAC in JME/CF15 cells; assay type: cell-based
Description: (§1) Compound 2 was tested in whole cell patch clamp recordings for its specific effect on the swelling-activated chloride conductance (VRAC), and the Calcium activated chloride conductance (CaCC). CaCC and VRAC were investigated in JME/CF15 cells. […] Effect of compound 2 was tested in 2 runs at 1 and 10 μM, respectively, on CaCC, and VRAC.
(§2) JME/CF15 cells (see Jefferson et al. “Expression of normal and cystic fibrosis phenotypes by continuous airway epithelial cell lines” Am J Physiol. (1990) 259:L496-L505) were cultured as described (see Schwarzer et al. “Organelle redox of CF and CFTR-corrected airway epithelia measured with roGFP1” Free Radic Biol Med. (2007) 43:300-316, incorporated herein by reference in its entirety) and were seeded onto glass cover slips at low density and used 1 to 2 days after seeding
(§3) Whole cell patch clamp experiments were performed as described (see Fischer et al. “Basolateral C1 channels in primary airway epithelial cultures” Am J Physiol Lung Cell Mol Physiol. (2007) 292:L1432-L1443, incorporated herein by reference in its entirety), the pipette solution contained (in mM): 140 HCl, 160 N-methyl-D-glucamine (NMDG), 1 MgCl2, 5 Hepes, 1 glucose, 5 MgATP, pH 7.4. To investigate VRAC, the pipette contained in addition 5 mM EGTA. To investigate CaCC, the intracellular free Ca concentration was buffered to ˜500 nM by adding 1.8 mM CaCl2 and 2 mM EGTA. […]

[2] = system: Calcium activated chloride conductance (CaCC); experiment: Whole cell patch clamp recordings of CaCC in JME/CF15 cells; assay type: cell-based
Description: as §1, §2, §3

[3] = 10 μM, 0% indicates complete block and 100% indicates no block
[4] = tested at 1 and 10 μM, block stronger at depolarizing (positive) potential

| SMILES | inhibition of CTX-induced fluid secretion (cholera toxin (CTX)) [%] | inhibition of fluid secretion (in words) (cholera toxin (CTX)) | net fluid secretion (loop weight/loop length), CTX loop (cholera toxin (CTX)) | current remaining in VRAC [1, 3] [%] | block of VRAC (in words) [1, 4] | current remaining in CaCC after the addition of compound [2, 3] [%] | block of CaCC (in words) [2, 4] |
| --- | --- | --- | --- | --- | --- | --- | --- |
| O=C(NCc1ccc(Oc2ccccc2)cc1)c1nc(-c2cc(Br)c(O)c(Br)c2)no1 [BF'032, 3-(3,5-dibromo-4-hydroxyphenyl)-N-(4-phenoxybenzyl)-1,2,4-oxadiazole-5-carboxamide] | 90.16 | statistically significant inhibition | 0.06482 g/cm of loop | – | – | – | – |
| O=S(=O)(Nc1cccc(-c2ccc(OCCc3ccc(Cl)cc3)nn2)c1)C(F)(F)F [compound 2, N-(3-(6-(4-chlorophenethoxy)pyridazin-3-yl)phenyl)-1,1,1-trifluoromethanesulfonamide] | – | statistically significant inhibition | – | 23 | blocks VRAC significantly and that the block is voltage dependent; also recorded: blocked VRAC significantly and the block was voltage dependent | 64 | blocks CaCC and that the block is voltage dependent; also recorded: blocked CaCC and the block was voltage dependent |
